# Laboratory results taken from the supplement of paper PMC10307832.
# Assays:
# Experiment in all cases: relative viability (nuclei count vs DMSO), 5 days (fraction); higher = more cells survive
# [1] = compound: Cn1c(Nc2ccc(C(F)(F)F)cc2)nc2cc(Oc3ccnc(-c4ncc(C(F)(F)F)[nH]4)c3)ccc21 [RAF265] + Cc1nc(NC(=O)N2CCC[C@H]2C(N)=O)sc1-c1ccnc(C(C)(C)C(F)(F)F)c1 [Alpelisib] (partner 2 µM)
# Outline: (§1)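 Nuclei were stained with Hoechst during a one-step fixation (final 0.05% Triton X-100, 1% formaldehyde, 1 ug/ml Hoechst) carried out 5 days after dosing, then counted on 4× images. The cells, lung cancer lines in 1536-well plates, had been dosed by pin tool the day after seeding with one drug alone or a fixed anchor-drug dose plus five library-drug doses (not always all listed) in √10 steps. Relative viability is the nuclei count in treated wells divided by that in vehicle wells, and each value is the median of duplicate plates.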
# [2] = compound: C1=CC=C2C(=C1)C=CC(=C2SSC3=C(C=CC4=CC=CC=C43)O)O [IPA-3] + Nc1nc2[nH]cc(CCc3ccc(C(=O)N[C@@H](CCC(=O)O)C(=O)O)cc3)c2c(=O)[nH]1 [Pemetrexed] (partner 0.2 µM)
# Outline: as §1
# [3] = compound: Cc1ccc(-n2nc(C(C)(C)C)cc2NC(=O)Nc2ccc(OCCN3CCOCC3)c3ccccc23)cc1 [Doramapimod] + Nc1ncn([C@H]2C[C@H](O)[C@@H](CO)O2)c(=O)n1 [Decitabine] (partner 2 µM)
# Outline: as §1
# [4] = compound: Cn1c(Nc2ccc(C(F)(F)F)cc2)nc2cc(Oc3ccnc(-c4ncc(C(F)(F)F)[nH]4)c3)ccc21 [RAF265] + CS(=O)(=O)CCNCc1ccc(-c2ccc3ncnc(Nc4ccc(OCc5cccc(F)c5)c(Cl)c4)c3c2)o1 [Lapatinib] (partner 2 µM)
# Outline: as §1
cell line,measurement,setting,value
UMC-11,relative viability,[1]; first compound 0.01 µM,0.972
same,relative viability,[1]; first compound 0.03162 µM,0.981
same,relative viability,[1]; first compound 0.1 µM,0.969
same,relative viability,[1]; first compound 0.3162 µM,1.14
same,relative viability,[1]; first compound 1 µM,0.937
same,relative viability,[2]; first compound 0.2 µM,0.869
same,relative viability,[2]; first compound 0.6325 µM,0.756
same,relative viability,[2]; first compound 2 µM,0.83
same,relative viability,[2]; first compound 6.325 µM,0.769
same,relative viability,[2]; first compound 20 µM,0.943
same,relative viability,[3]; first compound 0.02 µM,0.65
same,relative viability,[3]; first compound 0.06325 µM,0.584
same,relative viability,[3]; first compound 0.2 µM,0.646
same,relative viability,[3]; first compound 0.6325 µM,0.723
same,relative viability,[3]; first compound 2 µM,0.419
same,relative viability,[4]; first compound 0.01 µM,0.97
same,relative viability,[4]; first compound 0.03162 µM,0.859
same,relative viability,[4]; first compound 0.1 µM,0.968
same,relative viability,[4]; first compound 0.3162 µM,1.07
same,relative viability,[4]; first compound 1 µM,0.776
